# Experimental data from patent US20090305259A1, “Early Diagnosis of Congenital Abnormalities in the Offspring of Diabetic Mothers” (YALE UNIVERSITY, priority 2006, published 2009).
# “Also recorded” adds a separate entry of the source.
# Tests used:
# developing conceptuses = conditions: 250 mg/kg prior to mating; fast elimination; cited from earlier work
# yolk sac vasculogenesis = experiment: Whole conceptus culture: yolk sac vasculogenesis under hyperglycemia; type: cell-based, mouse; conditions: for rescue of hyperglycemia-arrested yolk sac vascular development (arborization): conceptus culture with 20 mM D-glucose plus agent, PECAM-1 staining
# Protocol: Timed pregnant mice are used to harvest 7.5 and 9.5 days post conception (dpc) conceptuses from which yolk sac and hearts are dissected. The atrioventricular canals are isolated for subsequent culture and analysis of the epithelial to mesenchymal transformation that occurs in the formation of the endocardial cushion.
# (§1) Conceptuses are cultured for 48 hrs in the presence of rat serum or rat serum+20 mM D-Glucose, or rat serum+20 mM D-Glucose+rVEGF or NO donor or 20 mM mannitol for 48 hrs. At 8.5 dpc the yolk sacs are harvested and analyzed using LC-MS and LC-MS-MS methods as well as by traditional cell and molecular biological methods. At 9.5 dpc atrioventricular (AV) canals are harvested from the conceptuses and cultured for 48 to 72 hrs on collagen gels to allow epithelial-mesenchymal transformation (EMT). The AV canal cultures are analyzed by double or triple label standard and confocal immunofluorescence microscopy, laser dissection capture microscopy followed by Western blotting for protein determination, characterization and localization. The effects of exogenous VEGF-A (1, 10 & 20 ng/ml), Pro- and mature BDNF (1, 25 & 50 ng/ml), NO donor (Noc-18) TIMP-1 and TIMP-2 (1, 25 & 50 ng/ml) on EMT and protein expression, post-translational modification and degradation are assessed.
# Using this embryo culture system, groups of ten 7.5 dpc conceptuses were cultured in normoglycemic conditions (5.0 mM D-glucose [control]), hyperglycemic conditions (20 mM D-glucose [HG]), HG+10 pg/ml VEGF A165 (HG+rVEGF) and HG+a slow release NO donor (HG+Noc-18) for 24 hrs. The conceptuses were harvested at 8.5 dpc when their yolk sacs were at the primary capillary plexus stage and beginning to undergo vascular remodeling. Lysates were then prepared for SDS-PAGE, Silver Staining and MS analysis. FIG. 4A depicts PECAM-1 staining of the capillary plexas at 8.5 dpc and illustrates the non-descript vascular plexus observable at this stage of development. […] This is in contrast to LC-MS and LC-MS-MS analyses of these samples (see below).
# Wnt16 = experiment: Western blot of Wnt16 in yolk sacs across treatment groups; type: cell-based, mouse; conditions: yolk sac / whole conceptus culture, 20 mM D-glucose plus agent
# Protocol: as §1
# (§2) Further, several of these proteins were validated in conceptus culture assays prior to and following VEGF and NO donor rescues using Western blotting, histological and immunolocalization analyses. […] Further, sequestration of Wnt16 (FIG. 11), ADAM 15 (FIG. 12), and NOGO A (FIG. 13) by antibodies directed against them abrogated EMT in cardiac AVC cushion explant cultures. […]
# ADAM 15 = experiment: Western blot of ADAM 15 in yolk sacs across treatment groups; type: cell-based, mouse; conditions: yolk sac / whole conceptus culture, 20 mM D-glucose plus agent
# Protocol: as §1, §2
# NOGO A = experiment: Western blot of NOGO A in yolk sacs across treatment groups; type: cell-based, mouse; conditions: yolk sac culture, hyperglycemia plus agent, listed as NO donor
# Protocol: as §1, §2
# cardiac EMT = conditions: cardiac A-V canal and outflow tract cultures, 20 mM D-glucose; cited from earlier work
structure (smiles),measurement,setting,value
CN(N=O)C(=O)N[C@H]1C(O)O[C@H](CO)[C@@H](O)[C@@H]1O (mixture of isomers) [Streptozotocin],toxic effect on the developing conceptuses,developing conceptuses,no toxic effect
NCCN(CCN)/[N+]([O-])=N/O [NOC-18],rescue of hyperglycemia-arrested yolk sac vascular development (arborization),yolk sac vasculogenesis,rescue of the hyperglycemic arrest of vascular development; also recorded: restore normal vascular morphology; also recorded: rescue of yolk Sac vascular development
same,rescue of hyperglycemia-arrested yolk sac vascular development (arborization),yolk sac vasculogenesis; listed as NO donor,reversed
same,rescue of hyperglycemia-arrested yolk sac vascular development (arborization),yolk sac vasculogenesis; listed as NOD,restores vascular arborization
same,Wnt16 expression level (upregulated by hyperglycemia) after treatment,Wnt16,down-regulated to near normoglycemic levels
same,Wnt16 expression level (upregulated by hyperglycemia) after treatment,Wnt16; listed as NO donor,rescued; also recorded: returned to normal levels
same,ADAM 15 expression level (downregulated by hyperglycemia) after treatment,ADAM 15,up-regulated to near normoglycemic levels
same,ADAM 15 expression level (downregulated by hyperglycemia) after treatment,ADAM 15; listed as NO donor,rescued; also recorded: returned to normal levels
same,NOGO A expression level (downregulated by hyperglycemia) after treatment,NOGO A,rescued; also recorded: returned to normal levels
OC[C@H]1O[C@H](O)[C@H](O)[C@@H](O)[C@@H]1O [alpha-D-glucose],effect on yolk sac vasculogenesis,"yolk sac vasculogenesis; transient (as little as 3 hr) exposure, 20 mM alpha-D-glucose",arrest yolk sac vasculogenesis at the primary capillary plexus stage
same,effect on cardiac cushion formation,cardiac EMT,arrested cushion formation
